Tests used:
[1] = HORAC hydroxyl radical absorbance capacity (USTM 190), in tubo
Description: (§1) In the screening standard testing for oxygen radical absorbance capacity (ORAC) and hydroxyl radical absorbance capacity (HORAC) were conducted with the test polypeptides. Testing was conducted according to USTM 190 (HORAC) and USTM 192 (ORAC).
(§2) The peptides were tested in tubo for their antioxidant properties and tested against reference/known antioxidants. The evaluation of the antioxidant properties were conducted by determination of the ORAC (USTM 192) and HORAC (USTM 190) test methods. The results are listed in Table I for the peptides of the invention and for the conventionally known antioxidants vitamin C and Carnosine.

[2] = ORAC oxygen radical absorbance capacity (USTM 192), in tubo
Description: as §1, §2

Row | Compound | HORAC/hydroxyl [1] | ORAC/peroxyl [2] [μmol GAE/g]
1 | NCCC(=O)N[C@@H](Cc1c[nH]cn1)C(=O)O [Carnosine, β-alanyl-histidine, reference compound] | 2099 μmol GAE/g | 354
2 | O=C1O[C@H]([C@@H](O)CO)C(O)=C1O [Vitamin C, reference compound] | 0 μmol GAE/g | 4456
3 | Ac-wRyR-NH2 [RED27] | 735 μmol GAE/g | 5342
4 | RwRyR-NH2 [RED26] | No capacity | 4461
5 | RyR-NH2 [RED32] | 230 μmol GAE/g | 3385
6 | WKYK-NH2 [RED25] | 2476 μmol GAE/g | 4168
7 | WRYR [RED23] | 2089 μmol GAE/g | 4091
8 | WRYR-NH2 [RED6] | 1548 μmol GAE/g | 4488
9 | WRYr-NH2 [RED19] | 1457 μmol GAE/g | 4350
10 | WRyR-NH2 [RED21] | 2472 μmol GAE/g | 4816
11 | WrYR-NH2 [RED20] | 1666 μmol GAE/g | 4448
12 | WrYr-NH2 [RED18] | 2982 μmol GAE/g | 4758
13 | wRYR-NH2 [RED24] | 2225 μmol GAE/g | 4077
14 | wRwR-NH2 [RED31] | 1189 μmol GAE/g | 4652
15 | wRyR-NH2 [RED22] | 1686 μmol GAE/g | 5383
16 | wRyRw-NH2 [RED29] | No capacity | 5512
17 | wRyRy-NH2 [RED28] | No capacity | 5216

— patent publication US9795551B2, “Tetrapeptides and a method of use as an antioxidant” (L'OREAL, priority 2014, dated 2017)
